According to US12258328B2, “6-membered heteroaryl-containing aminopyridine compounds as EGFR inhibitors” (YUHAN CORPORATION, priority 2021, dated 2025):
Where two headings read alike, the source gives them in different places.

Legend:
EGFR del19/T790M/C797S = EGFR del19/T790M/C797S (Homo sapiens, UniProt P00533, C797S/DEL746-750/T790M); assay: Biochemical EGFR kinase assay (Lance Ultra TR-FRET), triple mutant del19/T790M/C797S
Experimental: (§1) Biochemical EGFR kinase assays were conducted using Lance Ultra time-resolved fluorescence resonance energy transfer (TR-FRET) technology from Perkin-Elmer. Compounds of the invention were initially diluted to 20 mM in 100% DMSO for storage and made into kinase buffer solution to create a compound concentration ranging from 0.003 μM and 10 μM.
(§2) Each kinase reactions were incubated at room temperature for 1 hour and then stopped by the addition of 4 μL of stop solution (10 mM EDTA). The specific Europium-labeled-anti-phosphopeptide antibody (PerkinElmer, AD0069) diluted in LANCE detection buffer was then added to a final concentration of 2 nM. After 60 minutes incubation at room temperature the LANCE signal was measured on an EnVision Multilabel Reader (Perkin-Elmer). Excitation wavelength was set at 320 nm and emission monitored at 615 nm (donor) and 665 nm (acceptor). The IC50 values were determined using GraphPad prism software (GraphPad Software, Inc., San Diego, CA, USA).

EGFR L858R/T790M/C797S = EGFR L858R/T790M/C797S (Homo sapiens, UniProt P00533, C797S/L858R/T790M); assay: Biochemical EGFR kinase assay (Lance Ultra TR-FRET), triple mutant L858R/T790M/C797S
Sequence of EGFR L858R/T790M/C797S (P00533 25-1210 T790M/C797S/L858R): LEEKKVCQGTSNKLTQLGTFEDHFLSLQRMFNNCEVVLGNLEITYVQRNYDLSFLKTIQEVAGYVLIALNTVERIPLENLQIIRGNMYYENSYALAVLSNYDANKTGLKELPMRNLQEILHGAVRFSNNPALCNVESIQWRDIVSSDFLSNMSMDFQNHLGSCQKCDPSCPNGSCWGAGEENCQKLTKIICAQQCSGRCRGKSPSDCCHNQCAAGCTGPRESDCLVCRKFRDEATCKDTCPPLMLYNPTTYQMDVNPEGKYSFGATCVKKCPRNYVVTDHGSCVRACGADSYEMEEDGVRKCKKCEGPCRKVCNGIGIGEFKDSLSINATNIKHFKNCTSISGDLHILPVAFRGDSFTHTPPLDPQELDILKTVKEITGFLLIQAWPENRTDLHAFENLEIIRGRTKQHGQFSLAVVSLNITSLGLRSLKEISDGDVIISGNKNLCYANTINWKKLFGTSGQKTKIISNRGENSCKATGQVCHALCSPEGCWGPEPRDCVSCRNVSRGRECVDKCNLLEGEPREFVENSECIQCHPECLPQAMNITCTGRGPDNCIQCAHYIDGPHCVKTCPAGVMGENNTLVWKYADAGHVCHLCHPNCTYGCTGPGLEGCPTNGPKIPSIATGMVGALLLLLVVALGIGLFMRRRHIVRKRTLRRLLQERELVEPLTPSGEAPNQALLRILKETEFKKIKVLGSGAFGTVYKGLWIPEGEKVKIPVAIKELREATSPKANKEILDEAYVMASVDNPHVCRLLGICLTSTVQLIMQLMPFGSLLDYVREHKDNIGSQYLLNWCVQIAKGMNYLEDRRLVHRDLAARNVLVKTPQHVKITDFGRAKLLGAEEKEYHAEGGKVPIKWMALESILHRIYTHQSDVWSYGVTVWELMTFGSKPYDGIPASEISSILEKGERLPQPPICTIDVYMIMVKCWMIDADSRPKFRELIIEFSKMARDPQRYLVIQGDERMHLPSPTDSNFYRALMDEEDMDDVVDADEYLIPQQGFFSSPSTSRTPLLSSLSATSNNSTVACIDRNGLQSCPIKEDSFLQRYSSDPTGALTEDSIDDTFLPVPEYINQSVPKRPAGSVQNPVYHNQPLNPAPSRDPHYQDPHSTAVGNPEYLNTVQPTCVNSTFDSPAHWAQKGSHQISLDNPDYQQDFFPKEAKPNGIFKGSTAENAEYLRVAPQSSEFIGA
Experimental: as §1, §2

EGFR del19/C797S = EGFR del19/C797S (Homo sapiens, UniProt P00533, C797S/DEL746-750); assay: Biochemical EGFR kinase assay (Lance Ultra TR-FRET), double mutant del19/C797S
Experimental: as §1, §2

EGFR L858R/C797S = EGFR L858R/C797S (Homo sapiens, UniProt P00533, C797S/L858R); assay: Biochemical EGFR kinase assay (Lance Ultra TR-FRET), double mutant L858R/C797S
Sequence of EGFR L858R/C797S (P00533 25-1210 C797S/L858R): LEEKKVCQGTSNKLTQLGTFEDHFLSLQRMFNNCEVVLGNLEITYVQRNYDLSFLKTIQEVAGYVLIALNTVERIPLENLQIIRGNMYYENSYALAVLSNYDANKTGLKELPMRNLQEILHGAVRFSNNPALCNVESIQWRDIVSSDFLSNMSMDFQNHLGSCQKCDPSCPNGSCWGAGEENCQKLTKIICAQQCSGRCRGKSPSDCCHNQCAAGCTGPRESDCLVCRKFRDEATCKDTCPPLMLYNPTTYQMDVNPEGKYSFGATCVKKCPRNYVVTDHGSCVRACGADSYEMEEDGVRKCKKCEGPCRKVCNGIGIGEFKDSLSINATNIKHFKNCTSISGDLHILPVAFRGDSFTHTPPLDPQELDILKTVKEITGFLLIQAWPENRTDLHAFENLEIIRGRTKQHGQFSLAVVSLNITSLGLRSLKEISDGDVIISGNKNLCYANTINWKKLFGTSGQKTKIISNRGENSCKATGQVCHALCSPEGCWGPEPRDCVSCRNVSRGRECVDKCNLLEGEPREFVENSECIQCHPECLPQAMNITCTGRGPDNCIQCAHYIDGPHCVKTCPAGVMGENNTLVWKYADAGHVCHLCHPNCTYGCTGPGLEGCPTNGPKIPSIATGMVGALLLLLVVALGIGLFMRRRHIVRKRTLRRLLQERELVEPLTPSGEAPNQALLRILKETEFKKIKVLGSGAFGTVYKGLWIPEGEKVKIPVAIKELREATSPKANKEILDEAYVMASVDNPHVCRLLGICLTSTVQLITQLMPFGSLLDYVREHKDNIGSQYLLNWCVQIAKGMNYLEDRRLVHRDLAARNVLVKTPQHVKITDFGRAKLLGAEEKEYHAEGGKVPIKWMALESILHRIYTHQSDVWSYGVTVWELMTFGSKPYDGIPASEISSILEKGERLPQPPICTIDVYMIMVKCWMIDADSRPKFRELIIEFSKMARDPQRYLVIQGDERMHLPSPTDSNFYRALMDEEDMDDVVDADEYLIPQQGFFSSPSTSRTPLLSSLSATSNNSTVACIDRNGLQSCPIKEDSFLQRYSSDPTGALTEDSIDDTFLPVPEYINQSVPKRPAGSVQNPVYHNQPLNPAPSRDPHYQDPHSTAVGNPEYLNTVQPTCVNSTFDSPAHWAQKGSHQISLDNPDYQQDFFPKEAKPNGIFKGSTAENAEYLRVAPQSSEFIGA
Experimental: as §1, §2

EGFR wildtype = EGFR wildtype (Homo sapiens, UniProt P00533); assay: Biochemical EGFR kinase assay (Lance Ultra TR-FRET), wildtype
Sequence of EGFR wildtype (P00533 25-1210): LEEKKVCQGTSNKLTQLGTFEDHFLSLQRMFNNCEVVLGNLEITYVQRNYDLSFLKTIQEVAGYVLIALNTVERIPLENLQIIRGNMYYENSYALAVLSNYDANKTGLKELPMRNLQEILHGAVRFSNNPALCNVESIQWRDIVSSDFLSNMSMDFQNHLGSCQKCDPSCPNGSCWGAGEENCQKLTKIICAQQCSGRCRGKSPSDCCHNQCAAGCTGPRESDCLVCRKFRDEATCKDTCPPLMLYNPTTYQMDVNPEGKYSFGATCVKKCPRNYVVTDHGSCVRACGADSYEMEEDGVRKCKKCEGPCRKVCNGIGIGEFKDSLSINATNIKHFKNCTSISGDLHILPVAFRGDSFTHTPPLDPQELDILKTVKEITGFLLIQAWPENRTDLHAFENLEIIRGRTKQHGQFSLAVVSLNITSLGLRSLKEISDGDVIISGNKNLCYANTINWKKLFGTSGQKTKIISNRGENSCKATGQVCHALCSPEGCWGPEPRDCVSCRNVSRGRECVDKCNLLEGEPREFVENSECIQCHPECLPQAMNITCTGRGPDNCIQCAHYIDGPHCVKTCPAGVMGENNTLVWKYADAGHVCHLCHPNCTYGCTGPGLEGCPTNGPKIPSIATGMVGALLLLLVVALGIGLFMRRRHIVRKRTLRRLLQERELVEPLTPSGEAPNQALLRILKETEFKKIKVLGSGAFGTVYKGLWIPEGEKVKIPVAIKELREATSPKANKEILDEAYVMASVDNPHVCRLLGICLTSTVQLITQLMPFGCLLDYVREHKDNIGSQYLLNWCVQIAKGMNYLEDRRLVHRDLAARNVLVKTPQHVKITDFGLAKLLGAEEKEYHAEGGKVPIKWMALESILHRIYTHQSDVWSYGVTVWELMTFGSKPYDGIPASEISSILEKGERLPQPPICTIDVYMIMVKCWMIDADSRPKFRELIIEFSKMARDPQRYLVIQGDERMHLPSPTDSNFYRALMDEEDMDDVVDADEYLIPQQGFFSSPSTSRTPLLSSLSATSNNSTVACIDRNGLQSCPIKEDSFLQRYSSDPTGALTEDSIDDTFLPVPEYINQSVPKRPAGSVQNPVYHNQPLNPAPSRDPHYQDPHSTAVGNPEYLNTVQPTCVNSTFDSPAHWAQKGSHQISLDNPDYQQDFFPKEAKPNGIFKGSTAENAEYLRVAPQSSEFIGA
Experimental: as §1, §2

[1] = ATP at Km, read-out: IC50 del19/T790M/C797S, Km ATP
[2] = IC50 del19/T790M/C797S, 100 μM ATP
[3] = ATP at Km, read-out: IC50 L858R/T790M/C797S, Km ATP
[4] = IC50 L858R/T790M/C797S, 100 μM ATP
[5] = ATP at Km, read-out: IC50 del19/C797S, Km ATP
[6] = ATP at Km, read-out: IC50 L858R/C797S, Km ATP
[7] = ATP at Km, read-out: IC50 WT, Km ATP
[8] = IC50 del19/T790M/C797S (nM) 100 μM ATP, 100 μM ATP
[9] = Km ATP, read-out: IC50 del19/T790M/C797S (nM) Km ATP
[10] = IC50 L858R/T790M/C797S (nM) 100 μM ATP, 100 μM ATP
[11] = Km ATP, read-out: IC50 L858R/T790M/C797S (nM) Km ATP
[12] = IC50 del19/C797S (nM) 100 μM ATP, 100 μM ATP
[13] = Km ATP, read-out: IC50 del19/C797S (nM) Km ATP
[14] = Km ATP, read-out: IC50 L858R/C797S (nM) Km ATP
[15] = IC50 WT (nM) 100 μM ATP, 100 μM ATP
[16] = IC50 L858R/C797S (nM) 100 μM ATP, 100 μM ATP
[17] = Km ATP, read-out: IC50 WT (nM) Km ATP

Sequence of EGFR del19/T790M/C797S (P00533 with tags, fused parts or gaps DEL746-750/T790M/C797S): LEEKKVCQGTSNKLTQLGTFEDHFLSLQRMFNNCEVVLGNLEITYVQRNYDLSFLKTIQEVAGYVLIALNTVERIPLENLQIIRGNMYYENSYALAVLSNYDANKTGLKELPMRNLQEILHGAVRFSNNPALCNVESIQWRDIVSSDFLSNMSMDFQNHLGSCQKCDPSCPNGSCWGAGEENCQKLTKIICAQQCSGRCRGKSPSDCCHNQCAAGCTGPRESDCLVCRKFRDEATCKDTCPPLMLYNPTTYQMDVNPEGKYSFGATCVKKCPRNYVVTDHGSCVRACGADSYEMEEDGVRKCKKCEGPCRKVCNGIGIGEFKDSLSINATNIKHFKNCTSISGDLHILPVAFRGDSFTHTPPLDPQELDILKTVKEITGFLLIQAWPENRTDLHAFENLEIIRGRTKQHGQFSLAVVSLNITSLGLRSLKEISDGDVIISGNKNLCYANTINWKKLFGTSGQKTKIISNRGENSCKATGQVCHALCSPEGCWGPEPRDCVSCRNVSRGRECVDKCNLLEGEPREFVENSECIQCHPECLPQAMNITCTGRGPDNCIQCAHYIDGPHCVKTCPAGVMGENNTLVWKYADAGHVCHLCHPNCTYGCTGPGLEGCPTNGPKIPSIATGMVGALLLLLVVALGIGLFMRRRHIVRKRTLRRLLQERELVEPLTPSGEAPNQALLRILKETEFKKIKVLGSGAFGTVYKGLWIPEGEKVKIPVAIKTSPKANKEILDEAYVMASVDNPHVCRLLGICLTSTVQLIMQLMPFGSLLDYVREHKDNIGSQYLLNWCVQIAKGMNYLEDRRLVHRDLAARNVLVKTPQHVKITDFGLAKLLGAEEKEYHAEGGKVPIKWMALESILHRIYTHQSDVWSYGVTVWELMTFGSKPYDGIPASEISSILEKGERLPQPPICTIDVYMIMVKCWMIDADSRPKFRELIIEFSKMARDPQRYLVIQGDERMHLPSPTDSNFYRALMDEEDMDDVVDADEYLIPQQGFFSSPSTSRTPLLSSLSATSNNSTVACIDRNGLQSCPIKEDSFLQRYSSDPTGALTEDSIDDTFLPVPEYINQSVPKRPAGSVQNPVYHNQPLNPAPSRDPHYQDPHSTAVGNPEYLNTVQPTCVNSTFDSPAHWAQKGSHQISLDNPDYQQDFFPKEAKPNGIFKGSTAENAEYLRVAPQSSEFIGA

SMILES	IC50 (EGFR del19/T790M/C797S; [1]) [nM]	IC50 (EGFR del19/T790M/C797S; [2]) [nM]	IC50 (EGFR L858R/T790M/C797S; [3]) [nM]	IC50 (EGFR L858R/T790M/C797S; [4]) [nM]	IC50 (EGFR del19/C797S; [5]) [nM]	IC50 (EGFR del19/C797S; IC50 del19/C797S, 100 μM ATP) [nM]	IC50 (EGFR L858R/C797S; [6]) [nM]	IC50 (EGFR L858R/C797S; IC50 L858R/C797S, 100 μM ATP) [nM]	IC50 (EGFR wildtype; [7]) [nM]	IC50 (EGFR wildtype; IC50 WT, 100 μM ATP) [nM]	IC50 (EGFR del19/T790M/C797S; [8]) [nM]	IC50 (EGFR del19/T790M/C797S; [9]) [nM]	IC50 (EGFR L858R/T790M/C797S; [10]) [nM]	IC50 (EGFR L858R/T790M/C797S; [11]) [nM]	IC50 (EGFR del19/C797S; [12]) [nM]	IC50 (EGFR del19/C797S; [13]) [nM]	IC50 (EGFR L858R/C797S; [14]) [nM]	IC50 (EGFR wildtype; [15]) [nM]	IC50 (EGFR L858R/C797S; [16]) [nM]	IC50 (EGFR wildtype; [17]) [nM]
O=S(=O)(C1CC1)n1cc(-c2nccc(Nc3cc(N[C@H]4CC[C@@H](CO)CC4)c(-c4cccc(CC(F)(F)F)n4)cn3)n2)cn1 [Example 246, ((1s,4s)-4-((6′-((2-(1-(Cyclopropylsulfonyl)-1H-pyrazol-4-yl)pyrimidin-4-yl)amino)-6-(2,2,2-trifluoroethyl)-[2,3′-bipyridin]-4′-yl)amino)cyclohexyl)methanol]	3	7.2	0.4	1.1	6.9	21.1	12.4	45.2	42	> 10000	–	–	–	–	–	–	–	–	–	–
CC(C)(O)c1ccc(-c2cnc(Nc3ccnc(-c4cnn(S(=O)(=O)C5CC5)c4)n3)cc2N[C@H]2CC[C@@H](C(C)(C)O)CC2)nc1 [Example 169, 2-(6′-((2-(1-(Cyclopropylsulfonyl)-1H-pyrazol-4-yl)pyrimidin-4-yl)amino)-4′-(((1s,4s)-4-(2-hydroxypropan-2-yl)cyclohexyl)amino)-[2,3′-bipyridin]-5-yl)propan-2-ol]	1.3	0.9	–	0.7	0.5	1.3	0.4	–	–	416	–	–	–	–	–	–	–	–	–	–
CN(C)CC1CCC(Nc2cc(Nc3ccnc(-c4cnn(S(=O)(=O)C5CC5)c4)n3)ncc2-c2ccc(C(C)(O)C(F)(F)F)cn2)CC1 (stereo not shown) [Example 234, 2-(6′-((2-(1-(Cyclopropylsulfonyl)-1H-pyrazol-4-yl)pyrimidin-4-yl)amino)-4′-(((1s,4s)-4-((dimethylamino)methyl)cyclohexyl)amino)-[2,3′-bipyridin]-5-yl)-1,1,1-trifluoropropan-2-ol]	0.5	0.3	0.2	0.2	0.2	0.5	0.3	0.7	0.7	122	–	–	–	–	–	–	–	–	–	–
C[C@]1(O)CC[C@@H](Nc2cc(Nc3ccnc(-c4cnn(S(=O)(=O)C5CC5)c4)n3)ncc2-c2ccccn2)CC1 [Example 35, (1s,4s)-4-((6′-((2-(1-(Cyclopropylsulfonyl)-1H-pyrazol-4-yl)pyrimidin-4-yl)amino)-[2,3′-bipyridin]-4′-yl)amino)-1-methylcyclohexan-1-ol]	–	–	–	–	–	–	–	–	–	–	0.3	0.6	0.3	0.2	0.2	0.3	0.3	811	–	–
CN1CCN(Cc2ccc(-c3cnc(Nc4ccnc(-c5cnn(S(=O)(=O)C6CC6)c5)n4)cc3N3CCC(C)(CO)CC3)nc2)CC1 [Example 1, (1-(6′-((2-(1-(Cyclopropylsulfonyl)-1H-pyrazol-4-yl)pyrimidin-4-yl)amino)-5-((4-methylpiperazin-1-yl)methyl)-[2,3′-bipyridin]-4′-yl)-4-methylpiperidin-4-yl)methanol]	–	–	–	–	–	–	–	–	–	–	0.8	1.2	1.3	0.4	52.3	37.5	10.5	> 10000	223	212
Cc1cc(-c2cnc(Nc3ccnc(-c4cnn(S(=O)(=O)C5CC5)c4)n3)cc2N[C@H]2CC[C@@](C)(O)CC2)nnc1C [Example 50, (1s,4s)-4-((2-((2-(1-(Cyclopropylsulfonyl)-1H-pyrazol-4-yl)pyrimidin-4-yl)amino)-5-(5,6-dimethylpyridazin-3-yl)pyridin-4-yl)amino)-1-methylcyclohexan-1-ol]	–	–	–	–	–	–	–	–	–	–	0.2	0.3	0.1	0.1	–	0.5	0.4	> 10000	2.2	–
CC1(O)CCC(Nc2cc(Nc3ccnc(-c4cnn(S(=O)(=O)C5CC5)c4)n3)ncc2-c2ccc(C(O)C(F)(F)F)cn2)CC1 (stereo not shown) [Example 226, (1s,4s)-4-((6′-((2-(1-(Cyclopropylsulfonyl)-1H-pyrazol-4-yl)pyrimidin-4-yl)amino)-5-(2,2,2-trifluoro-1-hydroxyethyl)-[2,3′-bipyridin]-4′-yl)amino)-1-methylcyclohexan-1-ol]	0.8	0.8	0.3	0.5	–	4.7	2	8.4	4.9	5120	–	–	–	–	–	–	–	–	–	–
CN1CC(Oc2ccc(-c3cnc(Nc4ccnc(-c5cnn(S(=O)(=O)C6CC6)c5)n4)cc3N[C@H]3CC[C@@](C)(O)CC3)nc2)C1 [Example 289, (1s,4s)-4-((6′-((2-(1-(Cyclopropylsulfonyl)-1H-pyrazol-4-yl)pyrimidin-4-yl)amino)-5-((1-methylazetidin-3-yl)oxy)-[2,3′-bipyridin]-4′-yl)amino)-1-methylcyclohexan-1-ol]	0.2	0.2	0.1	0.1	0.1	0.2	0.1	0.8	0.3	206	–	–	–	–	–	–	–	–	–	–
CC(C)(O)[C@H]1CC[C@@H](Nc2cc(Nc3ccnc(-c4cnn(S(=O)(=O)C5CC5)c4)n3)ncc2-c2ccc(S(=O)(=O)N3CCOCC3)cn2)CC1 [Example 184, 2-((1s,4s)-4-((6′-((2-(1-(Cyclopropylsulfonyl)-1H-pyrazol-4-yl)pyrimidin-4-yl)amino)-5-(morpholinosulfonyl)-[2,3′-bipyridin]-4′-yl)amino)cyclohexyl)propan-2-ol]	9.1	2.8	–	0.8	2.7	12.2	2.2	12.9	15.2	> 10000	–	–	–	–	–	–	–	–	–	–
O=S(=O)(C1CC1)n1cc(-c2nccc(Nc3cc(N[C@H]4CC[C@@H](F)CC4)c(-c4ccc(N5CCOCC5)cn4)cn3)n2)cn1 [Example 123, N^6′-(2-(1-(Cyclopropylsulfonyl)-1H-pyrazol-4-yl)pyrimidin-4-yl)-N^4′-((1s,4s)-4-fluorocyclohexyl)-5-morpholino-[2,3′-bipyridine]-4′,6′-diamine]	–	–	–	–	–	–	–	–	–	–	–	2.6	–	0.7	–	28.6	2.3	–	–	22
CN1CCC(Oc2ccc(-c3cnc(Nc4ccnc(-c5cnn(CC(F)F)c5)n4)cc3NC3CC(F)(F)C3)nc2)CC1 [Example 139, N^4′-(3,3-Difluorocyclobutyl)-N^6′-(2-(1-(2,2-difluoroethyl)-1H-pyrazol-4-yl)pyrimidin-4-yl)-5-((1-methylpiperidin-4-yl)oxy)-[2,3′-bipyridine]-4′,6′-diamine]	–	–	–	–	–	–	–	–	–	–	–	0.3	–	0.3	–	19.4	5	–	–	208
C[C@]1(O)CC[C@@H](Nc2cc(Nc3ccnc(-c4cnn(S(=O)(=O)C5CC5)c4)n3)ncc2-c2ccc(CN3CCC(F)(F)CC3)cn2)CC1 [Example 33, (1s,4s)-4-((6′-((2-(1-(Cyclopropylsulfonyl)-1H-pyrazol-4-yl)pyrimidin-4-yl)amino)-5-((4,4-difluoropiperidin-1-yl)methyl)-[2,3′-bipyridin]-4′-yl)amino)-1-methylcyclohexan-1-ol]	–	–	–	–	–	–	–	–	–	–	3.9	2.6	3.1	1.7	1.3	2.1	1.7	813	29.3	7.9
CN(C)C[C@H]1CC[C@@H](Nc2cc(Nc3ccnc(-c4cnn(S(=O)(=O)C5CC5)c4)n3)ncc2-c2cnc(OC(F)F)cn2)CC1 [Example 131, N^2-(2-(1-(Cyclopropylsulfonyl)-1H-pyrazol-4-yl)pyrimidin-4-yl)-5-(5-(difluoromethoxy)pyrazin-2-yl)-N^4-((1s,4s)-4-((dimethylamino)methyl)cyclohexyl)pyridine-2,4-diamine]	–	–	–	–	–	–	–	–	–	–	–	0.2	–	0.1	–	2.1	2.2	–	–	8.1
